Data on 3 substances can be found in US5032573A, “Homologs of aprotinin produced from a recombinant host, process, expression vector and recombinant host therefor and pharmaceutical use thereof” (Bayer Aktiengesellschaft, priority 1989, dated 1991).

Type in all cases: biochemical
The target of one test is cationic human Trypsin (Homo sapiens, UniProt P07477). In words: Kinetic studies, Ki by the method of Empie and Laskowski. On the procedure: (§1) The Ki values were determined by the method of M. W. Empie and M. Laskowski, Jr., Biochem. 21, 2274 (1982).
Another test has as its target anionic human Trypsin (Homo sapiens, UniProt P07478). The test is described as above. On the procedure:
as §1

Test [1] concerns the target T1, porcine trypsin (Sus scrofa, UniProt P00761).
T1 construct: purchased Merck 8350
In words: Trypsin inhibition assay with Pyr-Glu-Gly-Arg-pNA as the substrate. Here is the method:
(§2) Glu-52-Aprotinin obtained after cleavage with BrCN was compared with authentic aprotinin for its inhibitory activity against porcine trypsin. Both substrates Pyrglu-Gly-Arg-pNA and Benzoyl-Arg-pNa were used for trypsin determination.
(§3) The stock solution for aprotinin was 1 μg/ml, and for Glu-52-aprotinin 0.6 μg/ml. 0-100-200-300-400-500 μl of this stock solutions were used in the test with Benzol-Arg-pNA. In the test with Pyrglu-Gly-Arg-pNA,0-3-6-9-12-15 μl were used.
(§4) Inhibition of trypsin was determined by means of either the substrate benzoyl-DL-arginine-p-nitroanilide (Merck 1670) or pyroglutamyl-glycyl-arginine-p-nitroanilide, which was synthesized from commercially available pyroglutamyl-glycine (SENN 6886) and arginine-p-nitroanilide×HBr (SENN 9123) by means of the dicyclohexyl carbodiimide condensation method. This substrate is also sold under the designation S-2444 by KABI as an urokinase substrate.
(§5) The former has the advantage of giving a linear response to the amount of Aprotinin in the sample, but has a low sensitivity. The latter one has a high sensitivity, but due to the dissociation of the aprotinin-trypsin-complex at those low concentrations, the dose-response-curve is non linear.
(§6) The buffer for the measurement of trypsin and trypsin inhibitors is 0.2M Tris, pH 8.0 containing 0.01M CaCl2 and 0.05% Tween 80®.
(§7) The determinations can be performed in any spectral photometer which allows readings of optical densities (ODs) at 400 nm. For fully automated measurements, the photometers have to be equipped with a micro processor or must be interfaced with a suitable personal computer.
(§8) Disposable 1 cm semi micro plastic cuvettes are used for all assays. ODs are read in time intervals of 1 minute over 8 cycles at ambient temperature. The average increase of OD per minute is arbitrarily taken as the activity unit.
(§9) For inhibition assays, porcine trypsin (Merck 8350) solution (in 0.001N HCl/50% glycerol) is mixed with the inhibitor sample, adjusted to 500 μl with buffer and incubated for 10 minutes at ambient temperature. The reaction is initiated by the addition of substrate solution. Inhibitory activities are taken from a calibration curve or automatically calculated by computer programs developed especially for this purpose. […]

For test [2], the target named is T1, porcine trypsin. In words: Trypsin inhibition assay with Benzoyl-Arg-pNA as the substrate. The note with it: for ΔE/10 minutes: control without inhibitor 0.91. On the procedure: as §2, §3, §4, §5, §6, §7, §8, §9
The mark [3] stands for this setting: substrate Pyr-Glu-Gly-Arg-pNA, amount inhibitor per assay 9 ng, control without inhibitor 0.85 (aprotinin), 0.84 (Glu-52-aprotinin).
The mark [4] stands for this setting: substrate Benzoyl-Arg-pNA, amount inhibitor per assay 300 ng.

T1 sequence (P00761 9-231): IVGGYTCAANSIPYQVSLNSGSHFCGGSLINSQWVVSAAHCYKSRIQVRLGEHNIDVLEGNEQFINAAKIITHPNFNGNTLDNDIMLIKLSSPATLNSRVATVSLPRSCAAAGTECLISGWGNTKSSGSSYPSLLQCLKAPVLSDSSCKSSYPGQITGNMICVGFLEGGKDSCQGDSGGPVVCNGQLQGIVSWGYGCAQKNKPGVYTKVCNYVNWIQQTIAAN
Chain of anionic human Trypsin (P07478 24-247): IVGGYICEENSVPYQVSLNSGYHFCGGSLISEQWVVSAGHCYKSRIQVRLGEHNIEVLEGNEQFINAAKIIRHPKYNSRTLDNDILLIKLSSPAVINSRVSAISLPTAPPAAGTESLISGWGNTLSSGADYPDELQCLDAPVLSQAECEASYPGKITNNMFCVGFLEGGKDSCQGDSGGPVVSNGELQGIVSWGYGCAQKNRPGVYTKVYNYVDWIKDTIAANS

For orientation: Ki means the equilibrium dissociation constant of an inhibitor or competing ligand from its target. On to Arg-15-Glu-52-aprotinin, for which the inhibition constant Ki on cationic human Trypsin and on anionic human Trypsin was less than 0.01 nM in each case.

On to Glu-52-aprotinin, for which the “equilibrium constants of the trypsin-inhibitor complexes compared with aprotinin” value on porcine trypsin [1] (concluded from the trypsin inhibition dose-response curves) is reported as “in the same order of magnitude”. The “trypsin inhibitory activity, dose-response curve compared with aprotinin” value was “identical dose-response curves” at porcine trypsin [1] (substrate Pyr-Glu-Gly-Arg-pNA, FIG. 11) and “identical dose-response curves” on porcine trypsin [2] (substrate Benzoyl-Arg-pNA, FIG. 11). In addition, the ΔE/10 minutes at porcine trypsin [1] (substrate Pyr-Glu-Gly-Arg-pNA, amount inhibitor per assay 1.8 ng, control without inhibitor 0.84) stood at 0.67; at porcine trypsin [1] (substrate Pyr-Glu-Gly-Arg-pNA, amount inhibitor per assay 3.6 ng, control without inhibitor 0.84) it was 0.56; on porcine trypsin [1] (substrate Pyr-Glu-Gly-Arg-pNA, amount inhibitor per assay 5.4 ng, control without inhibitor 0.84), 0.47; on porcine trypsin [1] (substrate Pyr-Glu-Gly-Arg-pNA, amount inhibitor per assay 7.2 ng, control without inhibitor 0.84), 0.32; on porcine trypsin [1] (setting [3]), 0.28; at porcine trypsin [2] (substrate Benzoyl-Arg-pNA, amount inhibitor per assay 60 ng), 0.77. The ΔE/10 minutes at porcine trypsin [2] (substrate Benzoyl-Arg-pNA, amount inhibitor per assay 120 ng) stood at 0.68; on porcine trypsin [2] (substrate Benzoyl-Arg-pNA, amount inhibitor per assay 180 ng), 0.58; on porcine trypsin [2] (substrate Benzoyl-Arg-pNA, amount inhibitor per assay 240 ng), 0.44; at porcine trypsin [2] (setting [4]), 0.30. Also, the active molecules contained on porcine trypsin [2] (concluded from the trypsin inhibition dose-response curves against authentic aprotinin) is reported as approximately 100%.

For the substance Aprotinin [reference compound], the ΔE/10 minutes at porcine trypsin [1] (substrate Pyr-Glu-Gly-Arg-pNA, amount inhibitor per assay 3 ng, control without inhibitor 0.85) stood at 0.62; on porcine trypsin [1] (substrate Pyr-Glu-Gly-Arg-pNA, amount inhibitor per assay 6 ng, control without inhibitor 0.85), 0.39; at porcine trypsin [1] (setting [3]), 0.29; on porcine trypsin [1] (substrate Pyr-Glu-Gly-Arg-pNA, amount inhibitor per assay 12 ng, control without inhibitor 0.85) it was 0.18; at porcine trypsin [1] (substrate Pyr-Glu-Gly-Arg-pNA, amount inhibitor per assay 15 ng, control without inhibitor 0.85), 0.13; on porcine trypsin [2] (substrate Benzoyl-Arg-pNA, amount inhibitor per assay 100 ng), 0.76. Besides, the ΔE/10 minutes is reported as 0.57 at porcine trypsin [2] (substrate Benzoyl-Arg-pNA, amount inhibitor per assay 200 ng); 0.39 at porcine trypsin [2] (setting [4]); 0.08 on porcine trypsin [2] (substrate Benzoyl-Arg-pNA, amount inhibitor per assay 400 ng); 0.00 on porcine trypsin [2] (substrate Benzoyl-Arg-pNA, amount inhibitor per assay 500 ng).
